Experimental findings from ChEMBL document CHEMBL1201862, “PubChem BioAssay data set” (2004) are described below.

Several values for one entry are separate records, joined by “and”; a condition that tells them apart may be missing. Identical values can stand only once. Activity calls are given as the source filed them.

Broadly, the EC50 is the concentration that produces a half-maximal response. Broadly, the AC50 is the concentration giving half of the maximal activity seen. For orientation: IC50 means the concentration that gives 50% inhibition. By IC90 is commonly meant the point of the concentration-response curve where the effect stands at 90%.

A short description of test [1]: Trypanosoma cruzi growth suppression in host cells – NIH3T3 host cells, beta-gal luminescence, confirmation (AID 2044).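 Note: intracellular parasites grown in NIH/3T3 mouse fibroblasts as host cells; luminescent beta-galactosidase reporter signal from transgenic T. cruzi replicating inside host cells; inhibitors lower the luminescence signal.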 Format: functional, cell-based.
The nature of test [2]: NIH3T3 cell viability loss – ATP luminescence, mouse fibroblasts, counter-screen, dose response (AID 2010).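 Note: cells exposed to compound for about 90 hours before reading.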 Type of test: functional, cell-based.
The nature of test [3]: cervical cancer cell viability loss – HeLa, 24 h, plate reader, powder samples, set 3, cytotoxicity control, dose response (AID 651864). Format: functional, cell-based.
For a further test, the target named is T1, Caspase-3 (Homo sapiens, UniProt P42574).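 Note: Dose-response selectivity test against caspase-3 for candidate inhibitors of sentrin-specific proteases (SENPs).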
T1 sequence (P42574 whole entry): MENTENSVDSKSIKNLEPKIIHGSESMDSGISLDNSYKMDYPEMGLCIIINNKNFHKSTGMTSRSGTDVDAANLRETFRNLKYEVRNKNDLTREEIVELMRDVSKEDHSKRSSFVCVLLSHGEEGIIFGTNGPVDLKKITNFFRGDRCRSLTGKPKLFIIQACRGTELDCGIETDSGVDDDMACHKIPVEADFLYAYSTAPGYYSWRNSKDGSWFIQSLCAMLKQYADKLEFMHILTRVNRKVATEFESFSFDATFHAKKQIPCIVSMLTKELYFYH
Type of test: functional.

Test [4] addresses T2, Sentrin-specific protease 7 (Homo sapiens, UniProt Q9BQF6).
T2 sequence (Q9BQF6 whole entry): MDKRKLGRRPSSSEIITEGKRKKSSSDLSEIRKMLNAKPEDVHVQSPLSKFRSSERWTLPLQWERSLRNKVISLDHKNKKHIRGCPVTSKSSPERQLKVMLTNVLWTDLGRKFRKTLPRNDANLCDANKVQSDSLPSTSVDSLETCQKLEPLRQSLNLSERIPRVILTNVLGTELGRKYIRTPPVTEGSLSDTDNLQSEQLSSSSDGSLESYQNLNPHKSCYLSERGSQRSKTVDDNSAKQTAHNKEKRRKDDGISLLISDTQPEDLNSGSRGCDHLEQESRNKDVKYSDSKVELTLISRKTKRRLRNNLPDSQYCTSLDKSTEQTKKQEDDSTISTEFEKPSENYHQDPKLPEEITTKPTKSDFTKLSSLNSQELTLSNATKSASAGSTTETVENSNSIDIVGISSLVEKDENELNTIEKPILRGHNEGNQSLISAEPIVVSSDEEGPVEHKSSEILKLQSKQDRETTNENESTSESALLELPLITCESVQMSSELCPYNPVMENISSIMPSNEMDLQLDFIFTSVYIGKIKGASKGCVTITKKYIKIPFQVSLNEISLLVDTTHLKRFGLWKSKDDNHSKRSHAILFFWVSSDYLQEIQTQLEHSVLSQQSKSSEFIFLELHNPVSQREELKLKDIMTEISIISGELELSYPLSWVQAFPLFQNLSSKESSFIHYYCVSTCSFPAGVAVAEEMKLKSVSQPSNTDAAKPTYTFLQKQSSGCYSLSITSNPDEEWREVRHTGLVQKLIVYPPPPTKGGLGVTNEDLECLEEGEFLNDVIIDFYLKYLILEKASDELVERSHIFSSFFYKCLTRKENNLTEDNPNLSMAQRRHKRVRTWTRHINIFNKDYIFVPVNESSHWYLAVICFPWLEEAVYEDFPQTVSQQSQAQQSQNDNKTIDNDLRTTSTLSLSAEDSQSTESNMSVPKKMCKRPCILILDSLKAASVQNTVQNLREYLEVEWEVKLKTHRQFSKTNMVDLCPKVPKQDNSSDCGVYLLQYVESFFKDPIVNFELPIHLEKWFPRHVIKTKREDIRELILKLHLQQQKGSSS
Type of test: functional.

Test [5] addresses T3, Sentrin-specific protease 6 (Homo sapiens, UniProt Q9GZR1).
T3 sequence (Q9GZR1 whole entry): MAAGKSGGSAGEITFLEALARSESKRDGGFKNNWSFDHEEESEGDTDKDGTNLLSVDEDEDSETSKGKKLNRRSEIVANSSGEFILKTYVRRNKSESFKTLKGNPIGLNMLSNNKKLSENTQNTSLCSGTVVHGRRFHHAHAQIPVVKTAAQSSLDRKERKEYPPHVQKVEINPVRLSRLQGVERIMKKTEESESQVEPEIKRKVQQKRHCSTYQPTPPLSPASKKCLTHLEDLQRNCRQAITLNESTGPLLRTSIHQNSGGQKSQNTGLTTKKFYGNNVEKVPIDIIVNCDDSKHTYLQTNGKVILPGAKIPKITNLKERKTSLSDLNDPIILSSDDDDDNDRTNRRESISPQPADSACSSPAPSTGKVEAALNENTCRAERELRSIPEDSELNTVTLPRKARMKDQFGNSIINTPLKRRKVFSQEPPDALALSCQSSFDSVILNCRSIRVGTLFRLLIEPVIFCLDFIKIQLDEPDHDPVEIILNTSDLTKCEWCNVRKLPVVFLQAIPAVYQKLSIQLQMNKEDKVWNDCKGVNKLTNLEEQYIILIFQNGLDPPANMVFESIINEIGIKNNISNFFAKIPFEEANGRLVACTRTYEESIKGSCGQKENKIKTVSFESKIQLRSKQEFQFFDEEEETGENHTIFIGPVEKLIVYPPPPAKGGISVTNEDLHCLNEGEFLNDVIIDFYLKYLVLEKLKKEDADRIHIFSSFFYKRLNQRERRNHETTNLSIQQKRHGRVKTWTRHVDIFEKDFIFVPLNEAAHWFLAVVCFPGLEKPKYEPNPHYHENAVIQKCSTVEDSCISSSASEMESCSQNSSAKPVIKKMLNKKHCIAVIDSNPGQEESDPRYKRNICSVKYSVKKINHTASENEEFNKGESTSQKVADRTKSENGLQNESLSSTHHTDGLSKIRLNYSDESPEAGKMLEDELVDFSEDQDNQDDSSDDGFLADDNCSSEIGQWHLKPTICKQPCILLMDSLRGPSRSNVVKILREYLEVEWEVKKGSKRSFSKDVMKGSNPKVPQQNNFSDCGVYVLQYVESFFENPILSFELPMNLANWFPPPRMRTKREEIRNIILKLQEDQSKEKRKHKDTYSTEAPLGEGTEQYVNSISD
Format: functional.

The target in test [6] is T4, Sentrin-specific protease 8 (Homo sapiens, UniProt Q96LD8).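 Note: luminescence read-out of SENP8 inhibition, dose-response confirmation following an ultra-high-throughput screen.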
T4 sequence (Q96LD8 whole entry): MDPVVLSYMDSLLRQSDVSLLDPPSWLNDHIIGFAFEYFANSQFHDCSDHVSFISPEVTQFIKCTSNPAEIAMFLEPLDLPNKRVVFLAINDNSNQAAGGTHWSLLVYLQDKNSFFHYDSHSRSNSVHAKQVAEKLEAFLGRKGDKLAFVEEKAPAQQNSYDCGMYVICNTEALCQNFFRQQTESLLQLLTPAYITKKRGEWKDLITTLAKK
Type of test: functional.

The target of test [7] is T5, Oxysterols receptor LXR-beta (Homo sapiens, UniProt P55055).
T5 sequence (P55055 whole entry): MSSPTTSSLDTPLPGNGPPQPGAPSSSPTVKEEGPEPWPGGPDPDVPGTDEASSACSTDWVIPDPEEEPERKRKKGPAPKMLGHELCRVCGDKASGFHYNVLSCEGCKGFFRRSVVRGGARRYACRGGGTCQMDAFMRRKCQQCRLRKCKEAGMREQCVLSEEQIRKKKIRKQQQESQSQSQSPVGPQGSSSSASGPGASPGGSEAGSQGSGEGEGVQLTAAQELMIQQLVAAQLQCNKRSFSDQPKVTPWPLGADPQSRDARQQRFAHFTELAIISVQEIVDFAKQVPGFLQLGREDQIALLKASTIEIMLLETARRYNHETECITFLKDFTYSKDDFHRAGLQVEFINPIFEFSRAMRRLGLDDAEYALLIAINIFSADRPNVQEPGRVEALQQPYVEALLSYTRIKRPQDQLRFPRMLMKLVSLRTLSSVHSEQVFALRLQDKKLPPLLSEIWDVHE
Type of test: functional, cell-based.

Test [8] is described as follows: cells.
Test [9] is described as follows: cells. This is another data set of the same source.
A short description of test [10]: reduced cellular PGC1a acetyl-lysine signal – cell-based, cherry-picked samples, dose response (AID 720514).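 Note: potency may reflect raised or lowered acetylation signal.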 Format: functional.
The nature of test [11]: viability loss in HepG2 hepatoma cells – cell-based, ATP luminescence, cherry-pick, activator set 2, cytotoxicity control, dose response (AID 1053143). Format: functional.
In test [12] the target is T5, Oxysterols receptor LXR-beta. Type of test: functional, cell-based. This is another data set of the same source.
Test [13] in a line: activation of miR-122 Renilla sensor silencing – cell-based, Huh7 psiCHECK-miR122, Renilla luciferase, cherry-picked, dose response (AID 651956).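 Note: huh7 hepatoma cells stably carrying a psiCHECK-2 miR-122 sensor plasmid; renilla luciferase signal reporting endogenous miR-122 activity after 48 h compound exposure.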 Format: functional.
A short description of test [14]: viability loss in A549 lung cells – cell-based, 24 h, CellTiter-Glo luminescence, cherry-picks, cytotoxicity control, dose response (AID 1053115). Type of test: functional. To be noted: A549, 24 h. In general terms: In ATP-based viability assays light output follows the ATP content of the culture.
Test [15] can be described thus: general mammalian cell viability loss – inhibitor set, cherry-pick, set 2, cytotoxicity control for miR-122 modulator project, dose response (AID 720697). Format: functional, cell-based.
Test [16] in a line: general mammalian cell viability loss – activator set, cherry-pick, cytotoxicity control for miR-122 modulator project, dose response (AID 720690).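 Note: HEK293T human cells scored for general mammalian cytotoxicity.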 Type of test: functional, cell-based.
Test [17] can be described thus: viability loss in HEK293 kidney cells – cell-based, cherry-picks, set 5, cytotoxicity control, dose response (AID 1053117). Format: functional.
Test [18] can be described thus: blockers of FN fibrillogenesis by fibroblasts – AH1F cells, Alexa488-FN fluorescence, cherry-picks, dose response (AID 1035475). Type of test: functional, cell-based.
The target of test [19] is Metabotropic glutamate receptor 3 (Rattus norvegicus, UniProt P31422). The test is described as follows: inhibition of rat mGlu3 glutamate signaling – HEK/GIRK cells, thallium flux, dose response (AID 651839). Type of test: functional.
The nature of test [20]: inhibitors of non-replicating M. tuberculosis, dose response, luciferase, dry powder (AID 651619). Type of test: functional. To be noted: Mycobacterium tuberculosis.
Test [21] is described as follows: inhibitors of non-replicating M. tuberculosis, dose response, luciferase, dry powder (AID 651620). Type of test: functional. To be noted: Mycobacterium tuberculosis.
Test [22] can be described thus: inhibition of Env-driven cell fusion – HIV entry, plate reader, dry powder, dose response (AID 687023). Format: functional, cell-based.
Test [23] in a line: viability loss in CEM21 cells – cell-based, plate reader, dry powder, cytotoxicity control, dose response (AID 687026). Format: functional.
Test [24] is described as follows: T. cruzi growth inhibition in host cells, dose response, cell-based, plate reader, dry powder, set 2 (AID 652275). Type of test: functional.
A short description of test [25]: Trypanosoma cruzi replication inhibitors in host cells – cell-based, plate reader, dry powder samples, dose response (AID 651845). Type of test: functional.
Test [26] in a line: anti-trypanosomal activity in BESM host cells – imaging, CA-I/72 strain, bovine embryo skeletal muscle, dry powder, dose response (AID 651885). Type of test: functional, cell-based.

Chain of Metabotropic glutamate receptor 3 (P31422 whole entry): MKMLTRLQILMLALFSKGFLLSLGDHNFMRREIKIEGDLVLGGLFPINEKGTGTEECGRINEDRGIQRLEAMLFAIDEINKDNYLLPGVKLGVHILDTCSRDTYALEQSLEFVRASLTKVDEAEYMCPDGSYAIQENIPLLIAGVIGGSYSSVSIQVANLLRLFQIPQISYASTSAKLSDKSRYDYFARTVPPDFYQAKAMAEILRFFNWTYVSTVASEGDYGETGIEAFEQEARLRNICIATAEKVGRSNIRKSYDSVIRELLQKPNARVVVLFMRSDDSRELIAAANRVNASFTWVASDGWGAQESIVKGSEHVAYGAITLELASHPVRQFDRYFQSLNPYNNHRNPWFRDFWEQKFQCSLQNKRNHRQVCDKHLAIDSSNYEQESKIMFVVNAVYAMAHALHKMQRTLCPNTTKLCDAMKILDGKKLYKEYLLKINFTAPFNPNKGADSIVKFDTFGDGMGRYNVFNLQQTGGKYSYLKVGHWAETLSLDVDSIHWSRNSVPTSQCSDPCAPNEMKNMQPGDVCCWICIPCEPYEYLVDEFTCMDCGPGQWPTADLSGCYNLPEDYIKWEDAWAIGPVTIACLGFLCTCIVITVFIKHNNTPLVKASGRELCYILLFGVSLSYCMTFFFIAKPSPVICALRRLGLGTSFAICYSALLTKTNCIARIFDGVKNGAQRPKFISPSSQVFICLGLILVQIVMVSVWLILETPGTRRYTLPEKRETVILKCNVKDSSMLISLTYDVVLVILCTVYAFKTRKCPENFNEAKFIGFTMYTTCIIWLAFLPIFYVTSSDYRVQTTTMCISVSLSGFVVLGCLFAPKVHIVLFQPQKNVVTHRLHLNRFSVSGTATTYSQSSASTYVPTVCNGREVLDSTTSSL

Regarding `CCC(C)NC(=O)Cc1ccc(-c2ccccc2)cc1` (configuration not stated), the EC50 was 0.794 µM (active) in test [1] and > 60 µM (not active) in test [2]. Moreover, the half-maximal activity concentration (AC50) in test [3] was 141 µM (active).
As for `Cc1cc(C)nc(Nc2nc(-c3ccccc3)cs2)n1`, the IC50 at Caspase-3 is > 100 µM (inactive); in test [4], 1.89 µM (active); in [5], 2.1 µM (active); in [6], 3.29 µM (active). Further, the EC50 (in test [7]; in “cells [8]”) was > 67.5 µM (inactive) each time.
For the compound `CC(C)N1CCc2c(sc(NC(=O)Cc3ccccc3)c2C#N)C1`, the AC50 in the test “cells [9]” was 10.8 µM (active).
Consider `CCOc1ccnc(OCC)c1Br`, for which, in [10], the AC50 was 32.8 µM (active).
Regarding `Cc1nc2[nH]c(-c3cccs3)nc2cc1Br`, the AC50 in test [11] is 26 µM (active). Moreover, the EC50 in test [12] was > 67.5 µM (inactive).
Turning to `C[C@H](CO)N1C[C@H](C)[C@H](CN(C)Cc2ccc(-c3ccccc3)cc2)Oc2cc(C#C[C@@H](C)O)ccc2S1(=O)=O`, the AC50 is 37.3 µM (active) in [13], 50.9 µM (active) in test [14], 2.82 µM (active) in test [15] and 12.3 µM (active) in [16].
Consider `C[C@H]1CN([C@@H](C)CO)C(=O)c2cc(NC(=O)C3CCCCC3)ccc2O[C@@H]1CN(C)Cc1ccc(-c2ccccc2)cc1`, for which the concentration at half-maximal activity (AC50) was 51.3 µM (active) in [17] and > 70 µM (inactive) in [18].
`COc1ccc(-c2ccc3cc(C(=O)N4CCCC(CO)C4)ccc3c2)cc1OC` (configuration not stated) came in with an IC50 in [19] of 2.61 µM.
Take `[N-]=[N+]=NCCOCCNC(=O)CCCOc1ccc(C[S+]([O-])c2nnc(-c3ccc(F)cc3)o2)nc1` (configuration not stated): the IC90 in test [20] and in test [21] was 8 µM (active) in each case.
Take `CCOc1ccc(S(=O)(=O)NCc2ccccc2)cc1`: the concentration at half-maximal activity (AC50) in test [22] was 66.7 µM (active) and > 70 µM (inactive); in test [23], > 70 µM (inactive).
Turning to `CC(C)N1C[C@@H](C)[C@H](CN(C)Cc2cccc(Oc3ccccc3)c2)Oc2c(NC(=O)c3ccncc3)cccc2C1=O`, the AC50 in test [24] was 0.075 nM (active); in [25], 0.00713 µM (active). The IC50 in [26] was 1.5 µM (inconclusive).
